Data: patent US6884777B1, “Method for treating respiratory distress syndrome” (The Nemours Foundation, priority 2000, dated 2005)

What was measured:
pregnant rats = test: Antenatal treatment of pregnant rats: weight of maternal and fetal lungs; assay type: in vivo, rat; settings: delivery at d18; for Weight fetal lung (g)/g fetus / Average weight fetal lungs: antenatal treatment 48 h; for Average weight fetal lungs: n = 9; for increase of average fetal lung weight in relation to body weight: i.p. at d16 of gestation and 24 h later, leptin 1 mg/kg, dexamethasone 6 mg/kg, vs control
Protocol: Leptin (1 mg/kg body weight) was administered to pregnant rats at d16 of gestation and 24 h later by intraperitoneal injection. Dexamethasone at 6 mg per kg body weight was administered at similar time intervals as leptin. In addition, the effect of a combination of leptin and dexamethasone treatment was tested. After 48 h of leptin, dexamethasone or leptin/dexamethasone exposure, premature delivery of the rat pups was induced at d18, which is similar to 30 weeks of gestation in the human. The fetuses from each litter were pooled and weighed, and various tissues from both the rat fetuses and mothers were also dissected and weighed. […] Antenatal treatment with dexamethasone increased fetal lung weight by 41%.

[1] = tested on: leptin receptor OB-Rb mRNA; test: RT-PCR of leptin receptor expression in day 17 fetal lung explant cultures; assay type: cell-based, rat; settings: d17 fetal lung explants, 3 days; 1 ng/ml leptin or 10 nM dexamethasone
Protocol: FIG. 4 depicts RT-PCR analysis of leptin receptor expression in day 17 fetal lung explant cultures. Total RNA was reverse transcribed and amplified with either the short (OB-Ra) or the long (OB-Rb) form of the leptin receptor. Day 0 (Cd0) represents the time of initiation of culture. The fetal lung explants were exposed for 3 days to either control medium (Cd3), 1 ng/ml leptin (Ld3), or 10 nM dexamethasone (Dexd3). The size of the OB-Ra RT/PCR product is 479 bp and OB-Rb is 262 bp.
To explore the effect of gestational age on surfactant production in response to leptin, we exposed younger lung explant cultures (d17) to 1 ng/ml leptin. Total RNA was extracted by homogenizing the explants in 4M guanidine thiocyanate, applying the lysate on a Qiagen RNeasy column (Qiagen, Chatsworth, Calif.), and recovering total RNA according to the manufacturer's instructions. RNA was quantified by measurement of absorbancy at 260 nm (A260). The quality of RNA was assessed by the A260/A280 ratio and by separation on agarose gels. Total RNA (1 μg) was brought up to 10 μl in DEPC-treated water. […]

[2] = tested on: SP-B (surfactant protein-B); test: Western blot of SP-B in 21-day gestation fetal rat lung explants cultured with leptin; assay type: cell-based; settings: d21 explants
Protocol: FIG. 1 is a Western blot analysis of SP-B (surfactant protein-B) from 21-day gestation, fetal rat lung explants cultured in the presence or absence of leptin. Fetal lung explants were exposed to either (A) 1 ng/ml or (B) 10 ng/ml leptin from initiation of culture (day 0). Explants were harvested and protein extracts were prepared on days (d) 1, 2, and 3 of culture. Western blots were probed with an antibody specific to rat SP-B.
We have used a fetal lung explant model to mimic the conditions of the premature lung. Lungs from d21 rat fetuses, term being 22 days, were dissected free of heart, trachea and bronchi and placed in ice-cold serum free Waymouth medium and cut into 1 mm^3 pieces on a McIlwain tissue chopper. The lung explants were placed in tissue culture dishes that were scratched (along each half) to facilitate attachment of explants. The excess medium was aspirated and fresh medium (2 ml for 60 mm plate) was gently placed on the explants. The 17-21 d explants were incubated in 95% O2-5% CO2, since incubation of these explants in 5% CO2 in air can cause compression of airways (Gross and Wilson, J. Appl. Physiol. 55: 1725-32, 1983). The petri dishes were placed on a tilting platform and allowed to rest for 90 min in a humidified atmosphere in a CO2 incubator. Thereafter, the plates were tilted at 34 cycles per minute so that during each cycle, one half of the petri dish was exposed to gas phase and the other half was covered with the medium. Leptin at either 1 or 10 ng/ml was added to the explant cultures on the day of establishment of the culture (day 0). The explants were cultured for varying periods of time for up to 3 days, and protein extracts were prepared to establish a time course for leptin effects on the fetal lung. Surfactant proteins were separated by electrophoresis on 15% polyacrylamide—SDS gels, and transferred to nitrocellulose membranes by electroblotting. The membranes were blocked with 2% gelatin (BioRad), treated overnight with anti-SP-B, and then with secondary antibody (goat anti-rabbit HRP-conjugated antibody). […]

cornea from normal rats = settings: but not fa/fa Zucker rats, Sierra-Honigmann et al.; cited from earlier work
ob/ob mice = settings: cited from earlier work
type II alveolar cells = test: Histologic analysis of fetal lung after antenatal treatment (alkaline phosphatase staining); assay type: in vivo, rat; settings: antenatal treatment for 48 h, alkaline phosphatase staining (FIG. 6)
Protocol: FIG. 6 depicts the effect of antenatal treatment with leptin or dexamethasone on fetal lung morphology. Fetal lung sections were stained with a histochemical stain for alkaline phosphatase, which identifies type II cells. Control, no leptin; dexamethasone (6 mg/ml for 48 h); leptin (0.25 mg/ml for 48 h).
Histologic analysis of the lung tissue was done to determine the basis for the increased fetal lung weight. Type II cells were identified by alkaline phosphatase staining as previously described (Post and Smith, Am. Rev. Respir. Dis. 137: 525-30, 1988). Unfixed frozen 5 μm sections of fetal lung tissue were stained histochemically with alkaline phosphatase at pH 8.74 to identify type II alveolar cells. Slides were incubated for 60 minutes at 37° C. in 25 ml of 0.2M Tris-HCl buffer and 25 ml of deionized water, 5 mg of Naphthol AS-BI phosphate, 0.1 ml dimethylformamide, and 30 mg of fast red TR. The slides were then rinsed in 3 changes of deionized water, counterstained for 30 seconds in Harris hematoxylin and blued in running water for 3-5 minutes. Slides were mounted from water in Advantage™.

[3] = tested on: isolated type II alveolar cells; test: RT-PCR of surfactant and GAPDH mRNA in cultured isolated fetal type II alveolar cells; assay type: cell-based, rat; settings: 1 ng/ml leptin, 24 h, d19 type II cells
Protocol: FIG. 5 depicts RT-PCR analysis of surfactant and GADPH (glyceraldehyde phosphate dehydrogenase) mRNA expression in cultured isolated type II alveolar cells. Cells were exposed to either 1 ng/ml leptin (1 L) or 10 ng/ml leptin (10 L). Control cells were not exposed to leptin.
To determine if the leptin effect on surfactant production was due to a direct effect of leptin on the type II alveolar cell, we determined whether the effects of leptin could be reproduced in isolated type II alveolar cells in culture. Alveolar type II cells were obtained from the lungs of 19-d gestation fetal rats by the method described by Bhandari et al., (Pediatr. Res. 41:166-71, 1997). In brief, lungs of 19-day gestation fetal rats were removed, dissected free of connective tissue and nonparenchymal pulmonary tissue, and cultured as explants for 40-48 h in serum free Waymouth MB 752/1 medium with penicillin and streptomycin in humidified 95% O2/5% CO2 at 37° C. […] The explant cells were then harvested and the cells dissociated using a solution of collagenase, trypsin and DNase. The mixed cell suspension was subjected to three differential adhesions to remove fibroblasts. The non-adherent suspension containing an enriched population of fetal type II cells was plated at 2×10^6 cells/35 mm dish in 2 ml of minimum essential medium containing penicillin (100 U/ml), kanamycin ([…]) and 2% fetal bovine serum. The cells were cultured for 20-22 h at 37° C. in […] (Bhandari et al., Pediatr. Res. 41:166-71, 1997). Cultures contain 90-95% type II cells of which >99% are viable as determined by exclusion of the vital dye, trypan blue. The usual yield of type II cells from the lungs of the fetuses (10-16) per pregnant rat is approximately 10^7 cells.
Type II cells from d19 fetal lungs were cultured for 24 h and then exposed to either 1 or 10 ng/ml leptin for 24 h. Total RNA was isolated from these cells and then examined for SP-A, SP-B, SP-C, and GAPDH (housekeeping gene) mRNA expression.

SP-A, SP-B, SP-C mRNA = test: RT-PCR of surfactant protein mRNA in day 17 fetal lung explant cultures; assay type: cell-based, rat; settings: 1 ng/ml leptin
Protocol: Cultures were exposed to 1 ng/ml leptin (lanes 3, A-C) or control medium (lanes 2, A-C), and total RNA was isolated at the indicated day of culture. Total RNA was reverse transcribed and amplified with both β-actin and […] PCR primers. In each figure, lane 1 is the time of initiation of culture (day 0). Low levels of all surfactant RNAs were detected in the uncultured cells (lanes 1, A-C). The size of the β-actin RT/PCR product is 492 bp; the size of SP-A is 352 bp; SP-B is 201 bp, and SP-C is 284 bp.
Qualitative RT/PCR detection of surfactant mRNA was performed using the Ambion QuantumRNA kit (Ambion, Austin, Tex.) and 1 μg of total RNA isolated from explants cultured for 3 days in culture. Lanes 1, 3,5: control day 3; lanes 2, 4, 6: 1 ng/ml leptin day 3.
To explore the effect of gestational age on surfactant production in response to leptin, we exposed younger lung explant cultures (d17) to 1 ng/ml leptin. Total RNA was extracted by homogenizing the explants in 4M guanidine thiocyanate, applying the lysate on a Qiagen RNeasy column (Qiagen, Chatsworth, Calif.), and recovering total RNA according to the manufacturer's instructions. RNA was quantified by measurement of absorbancy at 260 nm (A260). The quality of RNA was assessed by the A260/A280 ratio and by separation on agarose gels. Total RNA (1 μg) was brought up to 10 μl in DEPC-treated water. The sample was heated to 75° C. for 3 min, placed on ice, and cDNA synthesis was performed by reverse transcription for 15 min at 42° C. in a 20 μl reaction containing 1×PCR buffer II (Perkin-Elmer), 5 mM MgCl2, 1.25 mM each dNTP, 1 U/μl RNasin (Promega), 12.5 μg/μl oligo (dT) 15, and 2.5 U/μl AMV reverse transcriptase (Promega Madison, Wis.). Subsequent amplification of the cDNA sequence was performed with 10 μl of the reverse transcription reaction in 1×Taq buffer, 5% DMSO, 25 pmol each primer (Table 1), and 1.25 U Taq polymerase in a 50 μl reaction volume.
For assessment of the relative levels of SP-A, SP-B and SP-C transcripts, a multiplex RT/PCR reaction with β-actin was used. The temperature profile for the PCR reactions consisted of a 2 min melting step at 95° C., then 30 cycles of 30 s at 94° C., 30 s at 55° C., and 60 sec at 65° C., followed by a final extension step of 5 min at 72° C. RT-PCR products were separated by size on a 4% agarose gel and stained with ethidium bromide. Gel visualization and quantitative analysis of relative band intensities was performed using Eagle Eye II hardware and software (Stratagene, La Jolla, Calif.).
However, leptin also increases the levels of P-actin in fetal lung explant cultures. […] Therefore, we chose to use 18S rRNA to determine the relative levels of surfactant mRNA because of the invariant expression of 18S rRNA across tissues and treatments. Since 18S rRNA is much more abundant than any mRNA species, modified 18S rRNA primers called competimers (Ambion) are used that cannot be extended by Taq polymerase. By adjusting the ratio of competimers to normal 18S rRNA primers, the RT/PCR signal for 18S rRNA can be decreased to the level of even rare messages, as described by the manufacturer. […] These experiments support the hypothesis that leptin has an effect on the maturation of type II alveolar cells.

[4] = d17 explants, multiplex RT/PCR with β-actin (FIG. 2)
[5] = d17 lung explants, 3 days in culture

Q: For `C[C@@H]1C[C@H]2[C@@H]3CCC4=CC(=O)C=C[C@]4(C)[C@@]3(F)[C@@H](O)C[C@]2(C)[C@@]1(O)C(=O)CO` [Dexamethasone, dexamethasone, reference compound], which “Weight fetal lung (g)/g fetus” value (pregnant rats) is on record?
A: 0.52 g/g fetus

Q: And the “Average weight fetal lungs” value (pregnant rats)?
A: 0.79 (n = 9) g

Q: And the “increase of average fetal lung weight in relation to body weight” value (pregnant rats)?
A: 41%

Q: Which “OB-Rb mRNA levels” value [1] does the source give for leptin here?
A: decreases

Q: What about the SP-B production ([2]; 1 ng/ml leptin, 48 or 72 h exposure, vs control cultures) of the same molecule?
A: increases SP-B production above that of the control cultures

Q: What about the SP-B levels ([2]; 10 ng/ml leptin, 48 and 72 h) of the same molecule?
A: decreases SP-B levels

Q: And the SP-B production ([2]; 10 ng/ml leptin, 24 h)?
A: increases SP-B production

Q: And the “Weight fetal lung (g)/g fetus” value (pregnant rats)?
A: 0.56 g/g fetus

Q: What about the “Average weight fetal lungs” value (pregnant rats) of the same molecule?
A: 0.87 (n = 9) g

Q: What about the “increase of average fetal lung weight in relation to body weight” value (pregnant rats) of the same molecule?
A: 51%

Q: And the neovascularization in cornea (cornea from normal rats)?
A: induces neovascularization

Q: And the respiratory depression (ob/ob mice; O'Donnell et al. 1999)?
A: prevent respiratory depression

Q: And the “volume-dependent decrease in lung compliance” value (ob/ob mice; Tankersley et al. 1998)?
A: ameliorated

Q: And the “number of type II alveolar cells in fetal lung” value (type II alveolar cells)?
A: increase in the number of type II alveolar cells

Q: And the “SP-A mRNA levels” value [3]?
A: increased

Q: And the “SP-B mRNA levels” value [3]?
A: increased

Q: What about the “SP-C mRNA levels” value [3] of the same molecule?
A: increased

Q: And the “SP-A mRNA levels” value (SP-A, SP-B, SP-C mRNA; [4])?
A: significantly increases

Q: What about the “SP-C mRNA levels” value (SP-A, SP-B, SP-C mRNA; [4]) of the same molecule?
A: significantly increases

Q: And the “SP-A mRNA level relative to 18S rRNA, increase” value (SP-A, SP-B, SP-C mRNA; [5])?
A: 1.6 fold

Q: What about the “SP-B mRNA level relative to 18S rRNA, increase” value (SP-A, SP-B, SP-C mRNA; [5]) of the same molecule?
A: 5 fold

Q: And the “SP-C mRNA level relative to 18S rRNA, increase” value (SP-A, SP-B, SP-C mRNA; [5])?
A: 2 fold

Q: What about the “levels of β-actin” value (SP-A, SP-B, SP-C mRNA; fetal lung explant cultures (FIG. 2)) of the same molecule?
A: increases
